Consider 22 compounds from patent US20250195511A1, “INDAZOLE DERIVATIVES USEFUL AS INHIBITORS OF NOD-LIKE RECEPTOR PROTEIN 3” (Merck Sharp & Dohme LLC, priority 2023, published 2025).

In the first test the test system is NLRP3 inflammasome. Put plainly: NLRP3 inflammasome activation: ASC-SPECK formation in gramicidin-stimulated THP-1 cells. Particulars: Homo sapiens, THP-1, inhibition of ASC SPECK formation; PMA-treated human monocytic THP-1 cells, compound 1 h before 12.5 μg/ml gramicidin, 3-hour treatment. It counts as cell-based. An excerpt: Activation of the canonical NLRP3 inflammasome requires two steps, priming and activation. A priming signal such as a pathogen activated molecular patterns (PAMPs) or danger-activated molecular patterns (DAMPs) are recognized by Toll-like receptors leads to nuclear factor kappa B (NF-KB)-mediated signaling. […] The second step is activation which induces oligomerization of NLRP3 and subsequent assembly of NLRP3, apoptosis-associated speck-like protein containing a CARD (ASC), and procaspase-1 into an inflammasome complex. This triggers the transformation of procaspase-1 to caspase-1, and the production and secretion of mature IL-1β and IL-18 (Kim et al., J. Inflamm. 2015, 12, 41; Ozaki et al., J. Inflamm. Res. 2015, 8, 15-27; Rabeony et al., Eur. J. Immunol. 2015, 45, 2847). During inflammasome complex assembly, the oligomerization of NLRP3 triggers the nucleation of ASC and an event commonly referred to as “ASC SPECK” formation, as it is identified in the cell as a discrete puncta within the cell after staining and visualization of ASC using common immunocytochemical methods.
The ability of compounds to inhibit NLRP3 inflammasome activation was determined in vitro by monitoring formation of the ASC-SPECK in human monocytic THP-1 cells after stimulation. THP-1 cells (ATCC catalog #TIB-202) were maintained in complete growth media containing Roswell Park Memorial Institute RPMI (ATCC catalog #30-2001), 10% heat inactivated fetal bovine serum, 1× penicillin/streptomycin and 0.05 mM 2-mercaptoethanol. At the start of the assay, undifferentiated THP-1 cells were plated at a density of 20,000 cells per well in a 384-well plate (Poly-D-lysine coated Cell Carrier Ultra microplate, Perkin Elmer catalog #6057500) in complete growth media supplemented with 10 ng/ml phorbol 12-myristate 13-acetate (PMA; Sigma catalog #P8139), and then incubated overnight. The next day, media was replaced with assay media (RPMI (Gibco catalog #11875-093), 0.01% bovine serum albumin (BSA)). Compounds were serially diluted in DMSO and then added to wells one hour prior to the addition of 12.5 μg/ml Gramicidin (Enzo Lifescience, catalog #ALX-350-233-M005). All incubations were carried out at 37° C. (5% CO2/95% air). Following a 3-hour treatment with gramicidin, cells are fixed with 4% paraformaldehyde and stored at 4° C. until immunofluorescence staining.
Immunofluorescence staining: Anti-ASC antibody (MBL catalog #D086-3) was desalted and labeled with Alexa 488 antibody labeling kit (Thermo catalog #A20181) prior to use as described below. After fixation, the following steps were carried out at rt. Cells were first permeabilized with 0.3% polyethylene glycol tert-octylphenyl ether (Triton X-100) in phosphate-buffered saline (PBS) for 15 minutes and then incubated in blocking buffer containing 5% goat serum, 0.3% polyethylene glycol sorbitan monolaurate (Tween-20) and 0.03% sodium azide in PBS for 1 hour. Cells were stained with a mixture of ASC-Alexa 488 antibody (diluted 1:200 in blocking buffer) and nuclear stain DRAQ5 (1:5000 in blocking buffer, Thermo catalog #62251) in blocking buffer for 1 hour. Following a wash with 0.3% polyethylene glycol sorbitan monolaurate (Tween-20) in PBS, plates were imaged with an Opera Phenix High Content Screening System. The number of DRAQ5 positive cells containing ASC SPECKS were quantified in each well.
Data analysis: EC50 values were calculated by standard curve-fitting analysis using an internally developed program in TIBCO Spotfire software.
With `Cc1cc(C(F)(F)F)cc(O)c1-c1cnc2cn(C34COC(C)(C3)C4)nc2n1` [Example 27, 3-methyl-2-[2-(1-methyl-2-oxabicyclo[2.1.1]hexan-4-yl)pyrazolo[3,4-b]pyrazin-6-yl]-5-(trifluoromethyl)phenol], the EC50 turned out to be 193 nM.
Still for that read-out and setting: in the case of `CCOCOc1cc(C(F)(F)F)cc(C)c1-c1cnc2c([C@@H](C)O)n(C[C@@H]3CC(=O)N(C4CC4)C3)nc2n1` (single isomer, unassigned) [Example 115, (R or S)-1-cyclopropyl-4-((6-(2-(ethoxymethoxy)-6-methyl-4-(trifluoromethyl)phenyl)-3-((R or S)-1-hydroxyethyl)-2H-pyrazolo[3,4-b]pyrazin-2-yl)methyl)pyrrolidin-2-one] it was 287 nM.
Still for that read-out and setting: in the case of `Cc1cc(C(F)(F)F)cc(O)c1-c1cnc2cn(C34CC(C)(C3)OC4C)nc2n1` (racemic) [Example 24, (S and R)-2-(2-(1,3-dimethyl-2-oxabicyclo[2.1.1]hexan-4-yl)-2H-pyrazolo[3,4-b]pyrazin-6-yl)-3-methyl-5-(trifluoromethyl)phenol] it was 427 nM.
Take `Cc1cc(Cl)cc(O)c1-c1cnc2cn([C@@H]3[C@@H]4COC[C@@H]43)nc2n1` [Example 56, 2-(2-((1R,5S,6S)-3-oxabicyclo[3.1.0]hexan-6-yl)-2H-pyrazolo[3,4-b]pyrazin-6-yl)-5-chloro-3-methylphenol]: the EC50 turned out to be 42 nM.
For the compound `Cc1cc(C(F)(F)F)cc(O)c1-c1cnc2cn([C@@H]3COCC[C@H]3O)nc2n1` [Example 34, (3R,4R)-3-[6-[2-hydroxy-6-methyl-4-(trifluoromethyl)phenyl]pyrazolo[3,4-b]pyrazin-2-yl]tetrahydropyran-4-ol], the EC50 was 44 nM.
Regarding `Cc1cc(C(F)(F)F)cc(O)c1-c1cnc2cn(C34CC(C(F)F)(C3)C4)nc2n1` [Example 39, 2-[2-[3-(difluoromethyl)-1-bicyclo[1.1.1]pentanyl]pyrazolo[3,4-b]pyrazin-6-yl]-3-methyl-5-(trifluoromethyl)phenol], the EC50 is 90 nM.
On the same count and under the same terms, in the case of `Cc1cc(C(F)(F)F)cc(O)c1-c1cnc2cn([C@@H]3[C@@H]4COC[C@@H]43)nc2n1` [Example 9, 2-(2-((1R,5S,6S)-3-oxabicyclo[3.1.0]hexan-6-yl)-2H-pyrazolo[3,4-b]pyrazin-6-yl)-3-methyl-5-(trifluoromethyl)phenol] it was 59 nM.
As to `Cc1cc(C(F)(F)F)cc(O)c1-c1cnc2cn(CC3(C#N)CCC3)nc2n1` [Example 13, 1-((6-(2-hydroxy-6-methyl-4-(trifluoromethyl)phenyl)-2H-pyrazolo[3,4-b]pyrazin-2-yl)methyl)cyclobutane-1-carbonitrile], the EC50 is 264 nM.
As to `Cc1cc(C(F)(F)F)cc(O)c1-c1cnc2cn(C3CC4CCC(C3)O4)nc2n1` (stereo not shown) [Example 45, 3-methyl-2-[2-(8-oxabicyclo[3.2.1]octan-3-yl)pyrazolo[3,4-b]pyrazin-6-yl]-5-(trifluoromethyl)phenol], the EC50 came out at 70 nM.
On to `Cc1cc(C(F)(F)F)cc(O)c1-c1cnc2cn(C[C@H]3CNC(=O)C3)nc2n1` [Example 7, (R)-4-((6-(2-hydroxy-6-methyl-4-(trifluoromethyl)phenyl)-2H-pyrazolo[3,4-b]pyrazin-2-yl)methyl)pyrrolidin-2-one], for which the EC50 came out at 46 nM.
As for `Cc1cc(C(F)(F)F)cc(O)c1-c1cnc2cn(C3COC4CC3C4)nc2n1` (racemic) [Example 25, (S and R)-2-(2-(2-oxabicyclo[3.1.1]heptan-4-yl)-2H-pyrazolo[3,4-b]pyrazin-6-yl)-3-methyl-5-(trifluoromethyl)phenol], the EC50 was 261 nM.
For `Cc1cc(C(F)(F)F)cc(O)c1-c1cnc2cn(C3CCOCC3)nc2n1` [Example 1, 3-methyl-2-(2-(tetrahydro-2H-pyran-4-yl)-2H-pyrazolo[3,4-b]pyrazin-6-yl)-5-(trifluoromethyl)phenol], the EC50 amounted to 71 nM.
On to `Cc1cc(C(F)(F)F)cc(O)c1-c1cnc2cn([C@H]3CCC(=O)N(C)C3)nc2n1` [Example 5, (5S)-5-[6-[2-hydroxy-6-methyl-4-(trifluoromethyl)phenyl]pyrazolo[3,4-b]pyrazin-2-yl]-1-methyl-piperidin-2-one], for which the 50% effective concentration (EC50) came to 13 nM.
On the same count and under the same terms, under `Cc1cc(C(F)(F)F)cc(O)c1-c1cnc2cn([C@H]3C[C@H](Cl)C3)nc2n1` [Example 49, 2-(2-((1R,3R)-3-chlorocyclobutyl)-2H-pyrazolo[3,4-b]pyrazin-6-yl)-3-methyl-5-(trifluoromethyl)phenol] stands 31 nM.
Same read-out and setting: in the case of `Cc1cc(C(F)(F)F)cc(O)c1-c1cnc2cn([C@H]3CCS(=O)(=O)C3)nc2n1` [Example 31, 2-[2-[(3S)-1,1-dioxothiolan-3-yl]pyrazolo[3,4-b]pyrazin-6-yl]-3-methyl-5-(trifluoromethyl)phenol] it was 265 nM; in that of `Cc1cc(C(F)(F)F)cc(O)c1-c1cnc2cn([C@H]3C[C@H](F)C3)nc2n1` [Example 16, 2-(2-((1R,3R)-3-fluorocyclobutyl)-2H-pyrazolo[3,4-b]pyrazin-6-yl)-3-methyl-5-(trifluoromethyl)phenol], 25 nM.

Staying with this test, now noted: inhibition of ASC SPECK formation; PMA-treated human monocytic THP-1 cells, compound 1 h before 12.5 μg/ml gramicidin, 3-hour treatment.
As for `Cc1cc(C(F)(F)F)cc(O)c1-c1cnc2cn([C@H]3CCOC[C@H]3F)nc2n1` (single isomer, unassigned) [Example 102, 2-(2-((3R,4R or 3S,4S)-3-fluorotetrahydro-2H-pyran-4-yl)-2H-pyrazolo[3,4-b]pyrazin-6-yl)-3-methyl-5-(trifluoromethyl)phenol], the EC50 came out at 314 nM.
Consider `Cc1cc(C(F)(F)F)cc(O)c1-c1cnc2cn(C3CCOC(C)(C)C3)nc2n1` (single isomer, unassigned) [Example 95, (R or S)-2-(2-(2,2-dimethyltetrahydro-2H-pyran-4-yl)-2H-pyrazolo[3,4-b]pyrazin-6-yl)-3-methyl-5-(trifluoromethyl)phenol], for which the EC50 turned out to be 388 nM.
As for `Cc1cc(C(F)(F)F)cc(O)c1-c1cnc2cn(C3(C)CC(F)C3)nc2n1` (single isomer, unassigned) [Example 75, 2-(2-((1S,3S or 1R,3R)-3-fluoro-1-methylcyclobutyl)-2H-pyrazolo[3,4-b]pyrazin-6-yl)-3-methyl-5-(trifluoromethyl)phenol], the EC50 turned out to be 262 nM.
On the same count and under the same terms, in the case of `Cc1cc(C(F)(F)F)cc(O)c1-c1cnc2c(C(C)O)n(C3CCC(=O)N(C(C)C)C3)nc2n1` (single isomer, unassigned) [Example 117, (S or R)-5-(6-(2-hydroxy-6-methyl-4-(trifluoromethyl)phenyl)-3-((S or R)-1-hydroxyethyl)-2H-pyrazolo[3,4-b]pyrazin-2-yl)-1-isopropylpiperidin-2-one] it was 29 nM; in that of `Cc1cc(C(F)(F)F)cc(O)c1-c1cnc2cn(C3CCC(=O)N(C(C)C)C3)nc2n1` (single isomer, unassigned) [Example 60, (R or S)-5-(6-(2-hydroxy-6-methyl-4-(trifluoromethyl)phenyl)-2H-pyrazolo[3,4-b]pyrazin-2-yl)-1-isopropylpiperidin-2-one], 7 nM.
As to `CCN1CC(n2cc3ncc(-c4c(C)cc(C(F)(F)F)cc4O)nc3n2)CCC1=O` (single isomer, unassigned) [Example 64, (R or S)-1-ethyl-5-(6-(2-hydroxy-6-methyl-4-(trifluoromethyl)phenyl)-2H-pyrazolo[3,4-b]pyrazin-2-yl)piperidin-2-one], the EC50 came to 10 nM.
